Tests used:
Bel-7402 = assay: Cytotoxicity against human Bel7402 cells after 96 hrs by MTT assay; details: Bel-7402, 96 h
MCF7 = assay: Cytotoxicity against human MCF7 cells after 96 hrs by MTT assay; details: MCF7, 96 h
A2780 = assay: Cytotoxicity against human A2780 cells after 96 hrs by MTT assay; details: A2780, 96 h
A549 = assay: Cytotoxicity against human A549 cells after 96 hrs by MTT assay; details: A549, 96 h
BGC-823 = assay: Cytotoxicity against human BGC823 cells after 96 hrs by MTT assay; details: BGC-823, 96 h
HCT-8 = assay: Cytotoxicity against human HCT8 cells after 96 hrs by MTT assay; details: HCT-8, 96 h

Structure (SMILES) | IC50 (Bel-7402) [µM] | IC50 (MCF7) [µM] | IC50 (A2780) [µM] | IC50 (A549) [µM] | IC50 (BGC-823) [µM] | IC50 (HCT-8) [µM]
COC(=O)CNC(=O)Cn1cc(C2=C(c3c[nH]c4ccccc34)C(=O)N(C)C2=O)c2ccccc21 | 28.4 | 36 | 33.9 | 78.3 | 88.4 | 22.9
COC(=O)[C@@H](CO)NC(=O)Cn1cc(C2=C(c3c[nH]c4ccccc34)C(=O)N(C)C2=O)c2ccccc21 | 67.2 | 24.5 | 23.2 | 37.9 | 28.9 | 22.9
COC(=O)CCNC(=O)Cn1cc(C2=C(c3c[nH]c4ccccc34)C(=O)N(C)C2=O)c2ccccc21 | 28.4 | 47.8 | 44.5 | 37.6 | 44.9 | 50.9
CC[C@H](C)[C@@H](NC(=O)Cn1cc(C2=C(c3c[nH]c4ccccc34)C(=O)N(C)C2=O)c2ccccc21)C(=O)OC | > 100 | > 100 | > 100 | > 100 | > 100 | > 100
COC(=O)[C@H](NC(=O)Cn1cc(C2=C(c3c[nH]c4ccccc34)C(=O)N(C)C2=O)c2ccccc21)C(C)C | 4.01 | 16 | 23.8 | 30.6 | 48.2 | 25.8
COC(=O)C(Cc1c[nH]c2ccccc12)NC(=O)Cn1cc(C2=C(c3c[nH]c4ccccc34)C(=O)N(C)C2=O)c2ccccc21 (single isomer, unassigned) | 4.11 | 4.83 | 5.39 | 45.2 | 3.73 | 9.19
COC(=O)C(Cc1ccccc1)NC(=O)Cn1cc(C2=C(c3c[nH]c4ccccc34)C(=O)N(C)C2=O)c2ccccc21 (single isomer, unassigned) | 96.7 | 95.3 | 77.9 | 88.1 | 98 | 72.4
COC(=O)C(Cc1ccc(O)c(O)c1)NC(=O)Cn1cc(C2=C(c3c[nH]c4ccccc34)C(=O)N(C)C2=O)c2ccccc21 (single isomer, unassigned) | > 100 | > 100 | > 100 | > 100 | > 100 | > 100
COC(=O)C(Cc1ccc(O)cc1)NC(=O)Cn1cc(C2=C(c3c[nH]c4ccccc34)C(=O)N(C)C2=O)c2ccccc21 (single isomer, unassigned) | 28.1 | 51.7 | > 100 | > 100 | > 100 | 93.2
COC(=O)C(C)NC(=O)Cn1cc(C2=C(c3c[nH]c4ccccc34)C(=O)N(C)C2=O)c2ccccc21 (single isomer, unassigned) | 9.34 | 15.3 | 15.8 | 30.5 | 60.4 | 21.4
COC(=O)C(CC(C)C)NC(=O)Cn1cc(C2=C(c3c[nH]c4ccccc34)C(=O)N(C)C2=O)c2ccccc21 (single isomer, unassigned) | 42.4 | 37.4 | 38.5 | > 100 | 45.5 | 37.8
COC(=O)CC(NC(=O)Cn1cc(C2=C(c3c[nH]c4ccccc34)C(=O)N(C)C2=O)c2ccccc21)C(=O)OC (single isomer, unassigned) | 9.36 | 25.8 | 15.4 | 74.2 | 24.6 | 23.4
COC(=O)CCC(NC(=O)Cn1cc(C2=C(c3c[nH]c4ccccc34)C(=O)N(C)C2=O)c2ccccc21)C(=O)OC (single isomer, unassigned) | 47.4 | 23.4 | 32.3 | 73.7 | 25 | 29.2
COC(=O)[C@H](NC(=O)Cn1cc(C2=C(c3c[nH]c4ccccc34)C(=O)N(C)C2=O)c2ccccc21)[C@@H](C)O (single isomer, unassigned) | > 100 | 22.9 | 21.4 | 25.7 | 23.3 | 23.4
